Where two headings read alike, the source gives them in different places.
Experiments:
[1] = test system: MV4;11 cells; test: Cell viability assay (CellTiter-Glo) in MV4;11 cells, alone or with gilteritinib; type: cell-based; conditions: read-out: MV4
[2] = test system: MOLM-13 cells; test: Cell viability assay (CellTiter-Glo) in MOLM-13 cells, alone or with gilteritinib; type: cell-based
[3] = Homo sapiens, MV4-11, 72 h, MV4;11 cells, with 10 nM gilteritinib, 3 days, CellTiter-Glo, 11 IC50 gilteritinib
[4] = Homo sapiens, MV4-11, 72 h, MV4;11 cells, without gilteritinib, 3 days, CellTiter-Glo, 11 IC50
[5] = Homo sapiens, MOLM-13, 72 h, MOLM-13 cells, with 20 nM gilteritinib, 3 days, CellTiter-Glo, read-out: MOLM-13 IC50 gilteritinib
[6] = Homo sapiens, MOLM-13, 72 h, MOLM-13 cells, without gilteritinib, 3 days, CellTiter-Glo, read-out: MOLM-13 IC50
[7] = Homo sapiens, MV4-11, 72 h, 11 IC50
[8] = Homo sapiens, MV4-11, 72 h, 11 IC50 gilteritinib
[9] = Homo sapiens, MOLM-13, 72 h, read-out: MOLM-13 IC50
[10] = Homo sapiens, MOLM-13, 72 h, read-out: MOLM-13 IC50 gilteritinib

Row | Structure (SMILES) | IC50 [1, 3] [nM] | IC50 [1, 4] [nM] | IC50 [2, 5] [nM] | IC50 [2, 6] [nM] | other results
1 | O=C1CCC(N2C(=O)c3ccc(NCCCN4CC(N5CCN(c6ccccn6)CC5)C4)cc3C2=O)C(=O)N1 (stereo not drawn) |  |  |  |  | IC50 ([1]; Homo sapiens, 72 h, MV4;11 cells, compound alone (without gilteritinib), three days, CellTiter-Glo, 11 IC50): > 1000 nM; IC50 ([1]; Homo sapiens, 72 h, MV4;11 cells, with gilteritinib 10 nM, three days, CellTiter-Glo, 11 IC50 gilteritinib): > 1000 nM; IC50 ([2]; Homo sapiens, 72 h, MOLM-13 cells, compound alone (without gilteritinib), three days, CellTiter-Glo, read-out: MOLM-13 IC50): > 1000 nM; IC50 ([2]; Homo sapiens, 72 h, MOLM-13 cells, with gilteritinib 20 nM, three days, CellTiter-Glo, read-out: MOLM-13 IC50 gilteritinib): 10 to 100 nM
2 | O=C1CCC(N2Cc3cc(CNC(=O)C(F)(F)c4ccc(Cl)cc4)ccc3C2=O)C(=O)N1 (stereo not drawn) [CC-90009, reference compound] |  |  |  |  | IC50 ([1]; MV4;11 cells, with 10 nM gilteritinib, 3 days, CellTiter-Glo, 11 IC50 gilteritinib): 7.1 nM; IC50 ([1]; MV4;11 cells, without gilteritinib, 3 days, CellTiter-Glo, 11 IC50): 54 nM; IC50 ([2]; MOLM-13 cells, with 20 nM gilteritinib, 3 days, CellTiter-Glo, read-out: MOLM-13 IC50 gilteritinib): 8.6 nM; IC50 ([2]; MOLM-13 cells, without gilteritinib, 3 days, CellTiter-Glo, read-out: MOLM-13 IC50): 103 nM
3 | O=C1CCC(N2C(=O)c3ccc(NCCCCCC(=O)N4CCCCC4)cc3C2=O)C(=O)N1 (stereo not drawn) [GS-001, 2-(2,6-Dioxopiperidin-3-yl)-5-((6-oxo-6-(piperidin-1-yl)hexyl)amino)isoindoline-1,3-dione] | > 10000 | 4740 | 27 | 301 | 
4 | O=C1CCC(N2C(=O)c3ccc(NCCCCCC(=O)N4CCC(n5cccn5)CC4)cc3C2=O)C(=O)N1 (stereo not drawn) [GS-003, 5-((6-(4-(1H-Pyrazol-1-yl)piperidin-1-yl)-6-oxohexyl)amino)-2-(2,6-dioxopiperidin-3-yl)isoindoline-1,3-dione] | 191 | > 10000 | 103 | > 10000 | 
5 | O=C1CCC(N2C(=O)c3ccc(NCCCCCC(=O)N4CCC(n5cc(C6CNc7ccccc7N6)cn5)CC4)cc3C2=O)C(=O)N1 (stereo not drawn) [GS-008, 2-(2,6-Dioxopiperidin-3-yl)-5-((6-oxo-6-(4-(4-(1,2,3,4-tetrahydroquinoxalin-2-yl)-1H-pyrazol-1-yl)piperidin-1-yl)hexyl)amino)isoindoline-1,3-dione] | 27 | 449 | 14 | 78 | 
6 | O=C1CCC(N2C(=O)c3ccc(NCCCCCC(=O)N4CCC(c5ccccc5)CC4)cc3C2=O)C(=O)N1 (stereo not drawn) [GS-010, 2-(2,6-Dioxopiperidin-3-yl)-5-((6-oxo-6-(4-phenylpiperidin-1-yl)hexyl)amino)isoindoline-1,3-dione] |  |  |  |  | IC50 [1, 7]: 17 nM; IC50 [1, 8]: 2.3 nM; IC50 [2, 9]: 3 nM; IC50 [2, 10]: 0.3 nM
7 | O=C1CCC(N2C(=O)c3ccc(NCCCCCC(=O)N4CCC(N5CCOCC5)CC4)cc3C2=O)C(=O)N1 (stereo not drawn) [GS-011, 2-(2,6-Dioxopiperidin-3-yl)-5-((6-(4-morpholinopiperidin-1-yl)-6-oxohexyl)amino)isoindoline-1,3-dione] | > 10000 | > 10000 | 270 | > 10000 | 
8 | O=C1CCC(N2C(=O)c3ccc(NCCCCCC(=O)N4CCC(N5CCCCC5)CC4)cc3C2=O)C(=O)N1 (stereo not drawn) [GS-012, 5-((6-([1,4′-Bipiperidin]-1′-yl)-6-oxohexyl)amino)-2-(2,6-dioxopiperidin-3-yl)isoindoline-1,3-dione] | > 10000 | > 10000 | 312 | > 10000 | 
9 | CN1CCN(C2CCN(C(=O)CCCCCNc3ccc4c(c3)C(=O)N(C3CCC(=O)NC3=O)C4=O)CC2)CC1 (stereo not drawn) [GS-013, 2-(2,6-Dioxopiperidin-3-yl)-5-((6-(4-(4-methylpiperazin-1-yl)piperidin-1-yl)-6-oxohexyl)amino)isoindoline-1,3-dione] | > 10000 | > 10000 | 1850 | > 10000 | 
10 | O=C1CCC(N2C(=O)c3ccc(NCCCCCC(=O)N4CCC(c5ncccn5)CC4)cc3C2=O)C(=O)N1 (stereo not drawn) [GS-014, 2-(2,6-Dioxopiperidin-3-yl)-5-((6-oxo-6-(4-(pyrimidin-2-yl)piperidin-1-yl)hexyl)amino)isoindoline-1,3-dione] | 8.3 | 71 | 10 | 107 | 
11 | Cc1ccccc1C(=O)N1CCN(C(=O)CCCCCNc2ccc3c(c2)C(=O)N(C2CCC(=O)NC2=O)C3=O)CC1 (stereo not drawn) [GS-016, 2-(2,6-Dioxopiperidin-3-yl)-5-((6-(4-(2-methylbenzoyl)piperazin-1-yl)-6-oxohexyl)amino)isoindoline-1,3-dione] | > 10000 | > 10000 | 86 | > 10000 | 
12 | O=C1CCC(N2C(=O)c3ccc(NCCCCCC(=O)N4CCC(c5ccccn5)CC4)cc3C2=O)C(=O)N1 (stereo not drawn) [GS-017, 2-(2,6-Dioxopiperidin-3-yl)-5-((6-oxo-6-(4-(pyridin-2-yl)piperidin-1-yl)hexyl)amino)isoindoline-1,3-dione] | 2 | 20 | 2 | 30 | 
13 | O=C1CCC(N2C(=O)c3ccc(NCCCCCC(=O)N4CCN(c5ccccn5)CC4)cc3C2=O)C(=O)N1 (stereo not drawn) [GS-019, 2-(2,6-Dioxopiperidin-3-yl)-5-((6-oxo-6-(4-(pyridin-2-yl)piperazin-1-yl)hexyl)amino)isoindoline-1,3-dione] |  |  |  |  | IC50 [1, 7]: 162 nM; IC50 [1, 8]: 9.4 nM; IC50 [2, 9]: 146 nM; IC50 [2, 10]: 7 nM

Now from value to molecule, other results behind:

Row | IC50 [1, 3] [nM] | IC50 [1, 4] [nM] | IC50 [2, 5] [nM] | IC50 [2, 6] [nM] | Structure (SMILES) | other results
14 | 0.5 | 1.3 | 0.2 | 2.1 | O=C1CCC(N2Cc3cc(CNC(=O)C(F)(F)c4cccc(N5CCC(n6cc(-c7cnc8cccc(Br)c8n7)cn6)CC5)c4)ccc3C2=O)C(=O)N1 (stereo not drawn) [GS-004, 2-(3-(4-(4-(8-bromoquinoxalin-2-yl)-1H-pyrazol-1-yl)piperidin-1-yl)phenyl)-N-((2-(2,6-dioxopiperidin-3-yl)-1-oxoisoindolin-5-yl)methyl)-2,2-difluoroacetamide] | 
15 | 9.9 | 170 | 32 | 179 | O=C1CCC(N2Cc3cc(CNC(=O)C(F)(F)CCC(=O)N4CCC(n5cc(-c6cnc7cccc(Br)c7n6)cn5)CC4)ccc3C2=O)C(=O)N1 (stereo not drawn) [GS-007, 5-(4-(4-(8-bromoquinoxalin-2-yl)-1H-pyrazol-1-yl)piperidin-1-yl)-N-((2-(2,6-dioxopiperidin-3-yl)-1-oxoisoindolin-5-yl)methyl)-2,2-difluoro-5-oxopentanamide] | 
16 | 22 | 296 | 18 | 35 | O=C1CCC(N2C(=O)c3ccc(NCCCCCC(=O)N4CCC(n5cc(-c6cnccn6)cn5)CC4)cc3C2=O)C(=O)N1 (stereo not drawn) [GS-009, 2-(2,6-Dioxopiperidin-3-yl)-5-((6-oxo-6-(4-(4-(pyrazin-2-yl)-1H-pyrazol-1-yl)piperidin-1-yl)hexyl)amino)isoindoline-1,3-dione] | 
17 | 2780 | > 10000 | 30 | > 10000 | O=C1CCC(N2C(=O)c3ccc(NCCCCCC(=O)N4CCC(N5CCC(c6cnc7ccccc7n6)C5)CC4)cc3C2=O)C(=O)N1 (stereo not drawn) [GS-015, 2-(2,6-Dioxopiperidin-3-yl)-5-((6-oxo-6-(4-(3-(quinoxalin-2-yl)pyrrolidin-1-yl)piperidin-1-yl)hexyl)amino)isoindoline-1,3-dione] | 
18 | 0.9 | 8.7 | 1.6 | 15.6 | O=C1CCC(N2Cc3cc(OCCOCCC(=O)N4CCC(n5cc(-c6cnc7cccc(Br)c7n6)cn5)CC4)ccc3C2=O)C(=O)N1 (stereo not drawn) [GS-018, 3-(5-(2-(3-(4-(4-(8-Bromoquinoxalin-2-yl)-1H-pyrazol-1-yl)piperidin-1-yl)-3-oxopropoxy)ethoxy)-1-oxoisoindolin-2-yl)piperidine-2,6-dione] | 
19 | 3 | 29 | 11 | 87 | O=C1CCC(N2Cc3cc(NC(=O)CCCCC(=O)N4CCC(n5cc(-c6cnc7cccc(Br)c7n6)cn5)CC4)ccc3C2=O)C(=O)N1 (stereo not drawn) [GS-020, 6-(4-(4-(8-Bromoquinoxalin-2-yl)-1H-pyrazol-1-yl)piperidin-1-yl)-N-(2-(2,6-dioxopiperidin-3-yl)-1-oxoisoindolin-5-yl)-6-oxohexanamide] | 
20 | 44 | 3130 | 111 | 82 | O=C(CCCC(=O)N1CCC(n2cc(-c3cnc4cccc(Br)c4n3)cn2)CC1)NCc1ccc2c(c1)CN(C1CCC(=O)NC1=O)C2=O (stereo not drawn) [GS-021, 5-(4-(4-(8-Bromoquinoxalin-2-yl)-1H-pyrazol-1-yl)piperidin-1-yl)-N-((2-(2,6-dioxopiperidin-3-yl)-1-oxoisoindolin-5-yl)methyl)-5-oxopentanamide] | 
21 | 60 | 293 | 106 | 875 | O=C(COc1ccc2c(c1)CN(C1CCC(=O)NC1=O)C2=O)NCCC(=O)N1CCC(n2cc(-c3cnc4cccc(Br)c4n3)cn2)CC1 (stereo not drawn) [GS-022, N-(3-(4-(4-(8-bromoquinoxalin-2-yl)-1H-pyrazol-1-yl)piperidin-1-yl)-3-oxopropyl)-2-((2-(2,6-dioxopiperidin-3-yl)-1-oxoisoindolin-5-yl)oxy)acetamide] | 
